Results reported in publication PMC5573416, “Inhibiting mycobacterial tryptophan synthase by targeting the inter-subunit interface” (Scientific Reports, 2017).
In brackets after ≈: the same amount, converted by molar mass. Like-named read-outs stand apart in the source and are kept apart here.

Tests used:
Mtb H37Rv [1] = test: microbe, parasite or virus in culture; format: cell-based, Mycobacterium tuberculosis; details: for MIC: Mycobacterium tuberculosis, H37RV, read-out: Mtb H37Rv MIC
Mycobacterium bovis BCG = test: microbe, parasite or virus in culture; format: cell-based; details: Mycobacterium tuberculosis variant bovis BCG, read-out: MIC in M. bovis BCG
[2] = pH 7.4
in vitro = details: PAMPA
[3] = system: M. bovis BCG over-expressing constituents of the trp operon; format: cell-based; details: pVV16 trpA or trpB
[4] = Property forecast index (ChromlogD pH 7.4 + number of aromatic rings); format: physicochemical
physchem = details: pH 7.4, aqueous buffer, kinetic from dmso stock
[5] = pH 7.4; remark: listed apart in the source
[6] = pH 7.4; remark: listed apart in the source
[7] = target: PLP-induced tryptophan synthase complex (Mycobacterium tuberculosis, UniProt P9WFX9+P9WFY1); format: binding
M. bovis BCG = format: cell-based, Mycobacterium bovis BCG
[8] = target: T1, Mtb tryptophan synthase (TrpA and TrpB) (Mycobacterium tuberculosis, UniProt P9WFX9+P9WFY1); format: biochemical
[9] = target: T1, Mtb tryptophan synthase (TrpA and TrpB); format: biochemical; remark: listed apart in the source
Mtb H37Rv [10] = details: mouse, in vivo
[11] = PAMPA
[12] = sum of chromatographic logD at pH = 7.4 + number of aromatic rings

Sequence of PLP-induced tryptophan synthase complex (P9WFY1 whole entry): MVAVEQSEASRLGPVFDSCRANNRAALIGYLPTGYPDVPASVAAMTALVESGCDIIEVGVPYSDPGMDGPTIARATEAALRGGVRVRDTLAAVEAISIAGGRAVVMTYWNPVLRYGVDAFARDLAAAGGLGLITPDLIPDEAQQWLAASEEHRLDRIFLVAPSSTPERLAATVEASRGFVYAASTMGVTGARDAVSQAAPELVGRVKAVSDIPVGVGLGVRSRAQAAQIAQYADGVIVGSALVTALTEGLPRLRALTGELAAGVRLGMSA
Sequence of PLP-induced tryptophan synthase complex (P9WFX9 12-421 limits assumed): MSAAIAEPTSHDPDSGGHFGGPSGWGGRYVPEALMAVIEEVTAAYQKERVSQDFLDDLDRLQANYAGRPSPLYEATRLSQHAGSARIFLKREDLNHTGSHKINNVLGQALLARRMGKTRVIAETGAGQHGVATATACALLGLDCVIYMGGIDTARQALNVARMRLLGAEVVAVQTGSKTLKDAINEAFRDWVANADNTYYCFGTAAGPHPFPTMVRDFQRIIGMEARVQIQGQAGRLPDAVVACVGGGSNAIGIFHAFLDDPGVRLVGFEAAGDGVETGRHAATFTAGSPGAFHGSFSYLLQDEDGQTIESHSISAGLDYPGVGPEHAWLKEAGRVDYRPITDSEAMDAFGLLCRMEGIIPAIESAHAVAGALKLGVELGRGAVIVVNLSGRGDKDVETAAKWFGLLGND
T1 sequence (P9WFY1 whole entry): as the sequence (P9WFY1 whole entry) above
T1 sequence (P9WFX9 12-421 limits assumed): as the sequence (P9WFX9 12-421 limits assumed) above

Compound | MIC (Mtb H37Rv [1]) | MIC (Mycobacterium bovis BCG) | Cli mouse [2] | Papp (in vitro) | HepG2 Tox50 (HepG2 cells; human) | Effect on MIC of over-expression of the individual WT subunits [3] | PFI [4, 12] | solubility (physchem) | Cli human [5] | CLND Solubility [6] | Binding to PLP-induced tryptophan synthase complex [7] | L-tryptophan rescue of inhibition (M. bovis BCG) | Mtb H37Rv MIC (Mtb H37Rv [1]) | HepG2 Tox50 (HepG2 cells) | AMP Permeability [11] | also measured
O=S1(=O)C[C@H](O)[C@@H](N2CCN(c3ccccc3Cl)CC2)C1 [Compound 1, (3R,4R)-3-(4-(2-chlorophenyl)piperazin-1-yl)-4-hydroxytetrahydrothiophene 1,1-dioxide] | 0.76 µM (≈ 0.251 µg/mL) | 1 µM (≈ 0.331 µg/mL) | 15.7 mL/min/g | 38 ×10⁻⁶ cm/s | >50 µM | did not alter the MIC | 4.53 | > 464 µM | 0.92 mL/min/g |  |  |  |  |  |  | 
CNS(=O)(=O)c1ccc2c(c1)CCN2C(=O)c1ccccc1F [Compound 2] | 5.6 µM (≈ 1.87 µg/mL) | 5 µM (≈ 1.67 µg/mL) |  | 26 ×10⁻⁶ cm/s | >100 µM | did not alter the MIC |  | 140 µM (≈ 46.8 µg/mL) |  | enhanced solubility | binding of both inhibitors | L-tryptophan rescued the inhibition |  |  |  | PFI [4]: 5.80; L-tryptophan synthesis in presence of inhibitor (TLC) [8]: markedly decreased
CNS(=O)(=O)c1ccc2c(c1)CCN2C(=O)c1ccc(C)s1 [Compound 3] | 1.1 µM (≈ 0.37 µg/mL) | 0.7 µM (≈ 0.236 µg/mL) | 27.1 mL/min/g | 42.7 ×10⁻⁶ cm/s | >100 µM | did not alter the MIC |  | 19 µM (≈ 6.39 µg/mL) | 1.9 mL/min/g | poor solubility | binding of both inhibitors | L-tryptophan rescued the inhibition |  |  |  | L-tryptophan produced in presence of inhibitor (GF-HPLC) [9]: significant decrease in the L-tryptophan produced
NNC(=O)c1ccncc1 [Isoniazid, isoniazid, reference compound] |  |  |  |  |  |  |  |  |  |  |  | L-tryptophan does not rescue the inhibition |  |  |  | 
(3R,4R)-3-(4-(2-chloro-4-fluorophenyl)piperidin-1-yl)-4-hydroxytetrahydrothiophene 1,1-dioxide [Compound 5] |  |  |  |  |  |  | 5.22 |  |  | 397 µM |  |  | 0.5 µM | >100 µM | 52 ×10⁻⁶ cm/s | Efficacy response in acute infection assay (Mtb H37Rv [10]; sc): did not show a statistically significant response
(3R,4R)-3-(4-(2-chlorophenyl)piperidin-1-yl)-4-hydroxytetrahydrothiophene 1,1-dioxide [Compound 4] |  |  |  |  |  |  | 5.43 |  |  | 434 µM |  |  | 2.25 µM | >100 µM | 62.5 ×10⁻⁶ cm/s | Efficacy response in acute infection assay (Mtb H37Rv [10]): proved to be efficacious; Reduction of log CFU compared with untreated mice (Mtb H37Rv [10]; po, 350 mg/kg): 1.4 log colony forming units (CFU); Tolerability in infected mice (Mtb H37Rv [10]; po, 500 mg/kg): had to be withdrawn due to adverse effects
